In patent US12559464B2, “Quinazolinone dione compounds and uses thereof” (Edgewise Therapeutics, Inc., priority 2023, dated 2026):

Columns and labels:
[1] = tested on: myosin ATPase, Porcine Atria myofibrils; assay: Myofibril ATPase assay, porcine atria myofibrils; type: biochemical; conditions: concentration required to reduce myosin ATP-ase activity by 25%; Porcine Atria Prep pCa 25 GEOM_MEAN
[2] = molecular target: T1, myosin ATPase, Porcine Ventricle myofibrils (Sus scrofa, UniProt P79293); assay: Myofibril ATPase assay, porcine ventricle myofibrils; type: biochemical, porcine (Yucatan minipigs); conditions: concentration required to reduce myosin ATP-ase activity by 25%; Porcine Ventricle Prep pCa 25 GEOM_MEAN
T1 construct: Myofibrils from porcine cardiac muscle was isolated from the left ventricle of Yucatan minipigs; tissue Exemplar Genetics; host or cells: left ventricle of Yucatan minipigs, myofibrils
Protocol: (§1) Myofibril ATPase assays are known in the art to be useful in evaluating small molecules for the treatment of HCM and other cardiac indications. Myosin ATPase activity is assessed by using a coupled reaction system, in which ADP generated by the myosin ATPase function is coupled to the disappearance of NADH through the pyruvate kinase/lactate dehydrogenase (PK-LDH) system. ATPase activity produces ADP, which is used as a substrate for PK to produce pyruvate and regenerate ATP. The pyruvate is then used as a substrate by LDH to oxidize NADH to NAD+. The rate of the reaction is monitored through the time-dependent disappearance of NADH using absorbance at 340 nm, which, when the couple system is in stoichiometric excess, is directly correlated to the ATPase activity of the myosin. Inhibition of ATPase activity by the assayed compounds is indicated by a reduced rate of NADH loss, relative to vehicle-treated controls, over the experimental time window. Porcine Ventricle are the primary sources of myofibril material.
(§2) Materials: The following stock solutions and reagents were used in the Myofibril ATPase Assay: Stock Solutions; PIPES, 200 mM and 120 mM in H2O, pH 7.0; MgCl2 in H2O, 200 mM; PM12 Buffer, 10×: 120 mM PIPES (from 200 mM stock), 20 mM MgCl2 (from 200 mM stock); PBS Buffer, 1X: 135 mM NaCl, […], 10 mM Na(PO4)2, 1.8 mM K2(PO4), pH 7.4; EGTA in H2O, 250 mM; CaCl2) in H2O, 500 mM; DTT in H2O, 1 M; BSA in H2O, 10 mg/mL; ATP in 1×PBS, 50 mM; NADH in 1X PM12 and 1 mM DTT, 26 mM; PEP in 1X PM12, 78 mM, pH 7.0.
(§3) Stock Solutions of pCa buffer. Combine PIPES, CaCl2, and EGTA solutions with water. Adjust pH to 7.0 and bring final volume to 100 mL.
(§4) Buffer A & Buffer B. Prepare buffers A and B according to the table below.
(§5) Myofibril ATPase Assay Procedure: BSA, ATP, NADH, PEP, and DTT solutions were thawed at room temperature, then transferred to ice. Pellet-frozen myofibrils were transferred with approximately twice the required volume into a sufficiently large tube and capped. Myofibrils were thawed by rolling in a water bath for approximately 15 min at room temperature and cooled on ice. Buffers A and B were prepared by adjusting volumes as necessary for required number of wells and stored on ice. 0.5 μL of the compounds to be assayed were added into wells. 25 μL of Buffer A was dispensed into the wells, followed by 25 μL of Buffer B. The wells were measured for absorbance at 340 nm, using a kinetic protocol in which the wells are read every 1.5-2 min for 75 min. Assay data analysis was performed using a python script that filtered the raw data to retain those points falling between a starting and ending time and between a maximum and minimum absorbance, then used the filtered time-domain 340 nm absorbance data in each well to calculate a slope via linear regression analysis in units of mAU/min. Compound slopes were normalized between 100% and 0% activity, where 100% represented the slope of wells containing only compound vehicle, and fit to a 4-parameter logistic model. In addition to the fit parameters, the EC25% values were calculated, relative to the 100% normalized value. Additionally, the Y125 values were calculated for compounds that increased myosin ATP-ase activity. Fit parameters, calculated effective concentrations, filtered raw data, and calculated slopes were exported, in addition to compound-specific graphs of normalized ATPase activity versus concentration in μM. Each value reported in Table 8 is either a Y75 value or a Y125 value. Values without pound sign, #, are Y75 values, which reflect the concentration required to reduce myosin ATP-ase activity by 25% (e.g., Y-axis activity value is 75% of initial value), relative to myosin ATP-ase activity in the absence of exogenous compound. […]

[3] = tested on: myosin ATPase, Rabbit Psoas myofibrils; assay: Myofibril ATPase assay, rabbit psoas (skeletal) myofibrils; type: biochemical; conditions: Rabbit Psoas Prep pCa 25 GEOM_MEAN; for Rabbit Psoas Y125 value (marked #): concentration required to increase myosin ATP-ase activity by 25%; for Rabbit Psoas EC25 (Y75 value): concentration required to reduce myosin ATP-ase activity by 25%
Protocol: [Worded in the source for another species; this species is reported under the same test.] as §1, §2, §3, §4, §5

T1 sequence (P79293 whole entry): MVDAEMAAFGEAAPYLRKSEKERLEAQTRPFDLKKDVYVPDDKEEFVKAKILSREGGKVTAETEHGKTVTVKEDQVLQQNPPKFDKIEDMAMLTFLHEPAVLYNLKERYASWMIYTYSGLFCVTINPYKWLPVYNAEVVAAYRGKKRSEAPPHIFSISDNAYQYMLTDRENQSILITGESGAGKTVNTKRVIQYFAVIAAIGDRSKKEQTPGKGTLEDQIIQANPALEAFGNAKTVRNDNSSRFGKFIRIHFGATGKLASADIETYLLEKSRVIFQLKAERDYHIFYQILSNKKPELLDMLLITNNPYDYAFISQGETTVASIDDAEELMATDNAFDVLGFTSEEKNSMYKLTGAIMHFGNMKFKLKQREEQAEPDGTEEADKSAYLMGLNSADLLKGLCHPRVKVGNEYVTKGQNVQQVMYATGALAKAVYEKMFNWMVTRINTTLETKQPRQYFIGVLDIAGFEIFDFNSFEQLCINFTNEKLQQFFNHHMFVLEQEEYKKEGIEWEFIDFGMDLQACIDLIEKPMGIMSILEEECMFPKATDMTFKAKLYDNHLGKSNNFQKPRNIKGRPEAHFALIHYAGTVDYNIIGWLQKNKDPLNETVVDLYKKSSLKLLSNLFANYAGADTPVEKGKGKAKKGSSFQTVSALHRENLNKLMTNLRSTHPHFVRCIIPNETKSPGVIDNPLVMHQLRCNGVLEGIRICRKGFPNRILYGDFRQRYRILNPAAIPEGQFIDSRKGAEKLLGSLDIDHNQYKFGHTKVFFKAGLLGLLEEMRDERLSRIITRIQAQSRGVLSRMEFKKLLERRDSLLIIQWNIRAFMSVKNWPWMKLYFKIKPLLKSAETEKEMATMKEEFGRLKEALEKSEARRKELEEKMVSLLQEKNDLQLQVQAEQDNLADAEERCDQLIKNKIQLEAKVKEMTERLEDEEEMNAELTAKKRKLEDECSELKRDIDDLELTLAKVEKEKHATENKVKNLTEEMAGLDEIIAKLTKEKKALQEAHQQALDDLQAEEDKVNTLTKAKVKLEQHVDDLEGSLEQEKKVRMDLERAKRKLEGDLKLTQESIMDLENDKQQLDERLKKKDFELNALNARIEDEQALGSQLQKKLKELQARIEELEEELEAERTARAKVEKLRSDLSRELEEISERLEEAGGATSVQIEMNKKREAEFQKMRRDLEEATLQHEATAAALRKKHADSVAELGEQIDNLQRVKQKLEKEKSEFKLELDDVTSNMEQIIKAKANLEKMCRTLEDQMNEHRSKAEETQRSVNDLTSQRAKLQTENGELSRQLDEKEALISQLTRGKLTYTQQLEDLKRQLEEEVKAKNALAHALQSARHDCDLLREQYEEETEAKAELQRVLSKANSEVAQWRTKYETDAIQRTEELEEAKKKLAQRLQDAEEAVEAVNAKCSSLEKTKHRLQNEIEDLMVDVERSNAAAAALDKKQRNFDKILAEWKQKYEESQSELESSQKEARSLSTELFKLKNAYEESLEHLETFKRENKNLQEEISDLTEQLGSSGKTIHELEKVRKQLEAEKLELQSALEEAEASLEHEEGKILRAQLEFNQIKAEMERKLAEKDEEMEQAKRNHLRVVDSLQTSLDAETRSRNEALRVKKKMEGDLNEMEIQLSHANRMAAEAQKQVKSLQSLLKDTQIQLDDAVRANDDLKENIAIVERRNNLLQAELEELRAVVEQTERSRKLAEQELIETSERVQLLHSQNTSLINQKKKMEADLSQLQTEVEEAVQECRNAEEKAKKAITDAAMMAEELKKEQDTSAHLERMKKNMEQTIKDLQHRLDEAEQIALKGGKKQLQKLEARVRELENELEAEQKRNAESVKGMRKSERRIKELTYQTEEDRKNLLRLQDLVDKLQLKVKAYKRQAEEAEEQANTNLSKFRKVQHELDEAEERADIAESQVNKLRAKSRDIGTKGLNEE

| SMILES | Porcine Atria EC25 (Y75 value) [1] [µM] | Porcine Ventricle EC25 (Y75 value) [2] [µM] | Rabbit Psoas Y125 value (marked #) [3] | Rabbit Psoas EC25 (Y75 value) [3] [µM] |
| --- | --- | --- | --- | --- |
| CC(C)C[C@@H](C(=O)N[C@@H](C)c1ccc(F)cc1F)n1c(=O)[nH]c2ccccc2c1=O (single isomer, unassigned) [Compound 31] | 56.82 | 59.48 | 24.3^# μM |  |
| C[C@H](NC(=O)Cn1c(=O)[nH]c2cc(F)ccc2c1=O)c1ccc(F)cc1F [Compound 143, (S)-N-(1-(2,4-difluorophenyl)ethyl)-2-(7-fluoro-2,4-dioxo-1,4-dihydroquinazolin-3(2H)-yl)acetamide] | 2.081 | 100 |  | 9.2 |
| CC(NC(=O)Cn1c(=O)[nH]c2ccccc2c1=O)c1nccs1 (stereo not drawn) [Compound 601, 2-(2,4-dioxo-1,4-dihydroquinazolin-3(2H)-yl)-N-(1-(thiazol-2-yl)ethyl)acetamide] | 100 | 100 |  | 100 |
| Cc1c(F)ccc2[nH]c(=O)n(CC(=O)N[C@H]3COc4cc(C#N)cnc43)c(=O)c12 (single isomer, unassigned) [Compound 702] | 3.03 | 7.299 |  | 4.019 |
| CC(C)[C@H](NC(=O)Cn1c(=O)[nH]c2ccccc2c1=O)c1ccc(F)cc1F (single isomer, unassigned) [Compound 50] | 100 | 100 |  | 100 |
| C[C@@H](NC(=O)C1(n2c(=O)[nH]c3cccc(C#N)c3c2=O)CC1)c1ncc(C#N)cc1F (single isomer, unassigned) [Compound 3014] | 100.00 | 100.00 |  | 100.00 |
| C[C@H](NC(=O)[C@@H](Cc1ccccc1)n1c(=O)[nH]c2cccc(O)c2c1=O)c1ccc(F)cc1F [Compound 34, (R)-N-((S)-1-(2,4-difluorophenyl)ethyl)-2-(5-hydroxy-2,4-dioxo-1,4-dihydroquinazolin-3(2H)-yl)-3-phenylpropanamide] | 48.85 | 45.37 | 0.85^#^ μM |  |
| C[C@H](NC(=O)[C@H](C)n1c(=O)[nH]c2ccc(F)cc2c1=O)c1ccc(F)cc1F [Compound 40, (S)-N-((S)-1-(2,4-difluorophenyl)ethyl)-2-(6-fluoro-2,4-dioxo-1,4-dihydroquinazolin-3(2H)-yl)propanamide] | 0.1074 | 6.567 |  | 0.476 |
| COc1ccc([C@H](C)NC(=O)Cn2c(=O)[nH]c3ccccc3c2=O)cc1 (single isomer, unassigned) [Compound 529] | 100 | 100 |  | 100 |
| CC(C)C[C@H](C(=O)N[C@@H](C)c1ncc(F)cc1F)n1c(=O)[nH]c2ccccc2c1=O (single isomer, unassigned) [Compound 28] | 59.55 | 100 |  | 39.563 |
| C[C@H](NC(=O)Cn1c(=O)[nH]c2cccc(F)c2c1=O)c1ncc(C#N)cn1 (single isomer, unassigned) [Compound 202] | 8.617 | 100 |  | 7.437 |
| CN1CC(NC(=O)Cn2c(=O)[nH]c3ccccc3c2=O)c2c(F)cc(F)cc2C1=O (stereo not drawn) [Compound 43, N-(5,7-difluoro-2-methyl-1-oxo-1,2,3,4-tetrahydroisoquinolin-4-yl)-2-(2,4-dioxo-1,4-dihydroquinazolin-3(2H)-yl)acetamide] | 100 | 100 |  | 58.79 |
| C[C@H](NC(=O)C(C)(C)n1c(=O)[nH]c2ccccc2c1=O)c1ccc(F)cc1F [Compound 42, (S)-N-(1-(2,4-difluorophenyl)ethyl)-2-(2,4-dioxo-1,4-dihydroquinazolin-3(2H)-yl)-2-methylpropanamide] | 100 | 100 |  | 100 |
| C[C@H](NC(=O)Cn1c(=O)[nH]c2ccccc2c1=O)c1ccc(Cl)cc1 (single isomer, unassigned) [Compound 530] | 0.445 | 4.63 |  | 3.24 |
| CC(C)[C@H](N)C(=O)OCn1c(=O)n(CC(=O)N[C@@H](C)c2ccc(F)cc2F)c(=O)c2cc(F)ccc21 [Compound 401, (3-(2-(((S)-1-(2,4-difluorophenyl)ethyl)amino)-2-oxoethyl)-6-fluoro-2,4-dioxo-3,4-dihydroquinazolin-1(2H)-yl)methyl L-valinate] | 46.5 | 100 |  | 6.978 |
| C[C@H](NC(=O)Cn1c(=O)[nH]c2cc(Cl)ccc2c1=O)c1ccc(F)cc1F [Compound 407, (S)-2-(7-chloro-2,4-dioxo-1,4-dihydroquinazolin-3(2H)-yl)-N-(1-(2,4-difluorophenyl)ethyl)acetamide] | 0.3539 | 100 |  | 7.16 |
| Cc1nn(C)cc1C(C)NC(=O)Cn1c(=O)[nH]c2ccccc2c1=O (stereo not drawn) [Compound 602, N-(1-(1,3-dimethyl-1H-pyrazol-4-yl)ethyl)-2-(2,4-dioxo-1,4-dihydroquinazolin-3(2H)-yl)acetamide] | 100 | 100 |  | 100 |
| C[C@@H](NC(=O)Cn1c(=O)[nH]c2ccc(F)cc2c1=O)c1ncc(C#N)cc1F (single isomer, unassigned) [Compound 7] | 0.3543 | 1.467 |  | 5.692 |
| Cc1c(F)ccc2[nH]c(=O)n(CC(=O)N[C@@H]3COc4cc(C#N)cnc43)c(=O)c12 (single isomer, unassigned) [Compound 701] | 0.07 | 0.075 |  | 0.023 |
